# Values quoted from earlier work in patent US20040202640A1, “Method for topical treatment of scars with rotein Kinase C inhibitors” (priority 2003, published 2004).
# Key:
# [1] = test system: phorbol ester induced omithine decarboxylase activity; details: mouse skin
# [2] = test system: PKC
# [3] = biological target: calmodulin (CaM) (Homo sapiens, UniProt P0DP23)
Structure (SMILES),phorbol ester induced omithine decarboxylase activity [1],PKC inhibition [2],CaM function [3]
CCCCCCCCCCCCC/C=C/[C@@H](O)[C@@H](N)CO [Sphingosine],inhibit,dose-dependently inhibits PKC,inhibits CaM function
"CCCCCCCCCCCCC/C=C/[C@@H](O)[C@@H](N)COP(=O)(O)O [sphingosingosine-1-phosphate, sphingosine-1 phosphate]",,more effective PKC inhibitor than sphingosine,
